Measurements from patent US20030087834A1, “Increased fertility and improved fetal development drug” (priority 1999, published 2003).

Assays:
[1] = tested on: Female Crl:CD (SD) BR Rats; experiment: Developmental toxicity study in rats: reproductive performance and fetal development; assay type: in vivo, rat; settings: for Females pregnant (%) / Fertility index / Litters with resorptions (%) / Number of dead fetuses / Number of females bearing viable fetuses / Number of females pregnant / Number of litters with resorptions / Total number of viable fetuses / Body weight (g) of viable fetuses / Body weight (g) of viable fetuses: Female fetuses / Body weight (g) of viable fetuses: Male fetuses / Number of corpora lutea / Number of female fetuses / Number of implantation sites / Number of males fetuses / Number of resorptions / Postimplantation loss = (resorptions/implantations) / Preimplantation loss = (corpora lutea-implants)/(corpora lutea): Days 6 to 15 of gestation; for Total number of viable fetuses: Day 20; for Body weight (g) of viable fetuses / Body weight (g) of viable fetuses: Female fetuses / Body weight (g) of viable fetuses: Male fetuses / Number of corpora lutea / Number of female fetuses / Number of implantation sites / Number of males fetuses / Number of resorptions / Postimplantation loss = (resorptions/implantations) / Preimplantation loss = (corpora lutea-implants)/(corpora lutea): mean ±SD
Description: (§1) Safety tests performed on tagatose in its development as a low-calorie sweetener included developmental toxicity studies in rats. Rats are accepted by the US FDA as good models for humans in studying safety and efficacy of food additives and drugs. Newly impregnated rats were placed on various doses of tagatose in their daily diet. Female rats were housed with males nightly in a one-to-one ratio, and each morning inspections for vaginal plugs were made, and in their absence, vaginal smears were taken and tested for sperm. Those females which had been mated were selected for monitoring of fetal development and assigned to tagatose dose groups in a manner so as to provide an equal distribution of mated females among groups and also to equalize the Day 0 gestation mean body weights among the groups. There were 24 mated females in each group. On Days 6-15 of gestation three of the groups received respective total doses of 4,000, 12,000 and 20,000 mg/kg body wt/day administered via gastric intubation in two equally divided doses separated by a four-hour interval. Each dose was administered in 30 ml/kg body weight of distilled, deionized water. […] For a period of 20 days following mating, the rats were observed and measurements taken daily. Upon the 20th day, the rats were killed and a wide variety of physical, toxicological, and fetal developmental parameters was determined for treatment effects. […] However, I noted unpredictable, novel and beneficial effects with respect to fertility and fetal development.

human = experiment: Examples 1-4: human taking tagatose before and during pregnancy; assay type: in vivo
Description: A 70 kg human with a history of difficulty in conceiving begins taking tagatose twice daily at five g per dose, beginning one month before an attempt to conceive. […] A 70 kg human with a history of spontaneous abortions and stillbirths takes tagatose twice daily at five g per dose, beginning one month before an attempt to conceive. […] A 70 kg human takes precautions against giving birth to a below average weight infant by taking tagatose twice daily at five g per dose, beginning one month before an attempt to conceive. […] A 70 kg human inclined toward obesity desires a child, but is concerned that pregnancy may increase their food intake causing weight problems as experienced in their past pregnancies. They take tagatose twice daily at five g per dose, beginning one month before an attempt to conceive. […] They deliver a healthy, normal child.

Female Crl:CD(SD)BR Rats = experiment: Food consumption in pregnant rats fed D-tagatose; assay type: in vivo, rat; settings: for Food intake (g/animal) / Food intake (g/kg body wt/day): mean ±SD
Description: as §1
One of the common problems associated with pregnancy is overeating which can result in excess weight gain with its concomitant health risks to the mother and fetus. […] This represents a clear health advantage for both dam and fetus receiving tagatose.

[2] = 4,000 mg/kg/day, Days 0-6 of pregnancy (pretreatment)
[3] = 4,000 mg/kg/day, Days 6-9 of pregnancy
[4] = 4,000 mg/kg/day, Days 9-12 of pregnancy
[5] = 4,000 mg/kg/day, Days 12-16 of pregnancy
[6] = 4,000 mg/kg/day, Days 16-20 of pregnancy (posttreatment)
[7] = 12,000 mg/kg/day, Days 0-6 of pregnancy (pretreatment)
[8] = 12,000 mg/kg/day, Days 6-9 of pregnancy
[9] = 12,000 mg/kg/day, Days 9-12 of pregnancy
[10] = 12,000 mg/kg/day, Days 12-16 of pregnancy
[11] = 12,000 mg/kg/day, Days 16-20 of pregnancy (posttreatment)
[12] = 20,000 mg/kg/day, Days 0-6 of pregnancy (pretreatment)
[13] = 20,000 mg/kg/day, Days 6-9 of pregnancy
[14] = 20,000 mg/kg/day, Days 9-12 of pregnancy
[15] = 20,000 mg/kg/day, Days 12-16 of pregnancy
[16] = 20,000 mg/kg/day, Days 16-20 of pregnancy (posttreatment)

## O=C(CO)[C@@H](O)[C@@H](O)[C@H](O)CO [D-tagatose]
[1]; 4,000 mg/kg/day
  Females pregnant (%): 100%
  Fertility index: 100
  Litters with resorptions (%): 78.3%
  Number of dead fetuses: 0
  Number of females bearing viable fetuses: 23
  Number of females pregnant: 23
  Number of litters with resorptions: 18
  Total number of viable fetuses: 354
  Body weight (g) of viable fetuses: 3.56 ± 0.21 g
  Body weight (g) of viable fetuses: Female fetuses: 3.49 ± 0.20 g
  Body weight (g) of viable fetuses: Male fetuses: 3.64 ± 0.22 g
  Number of corpora lutea: 17.7 ± 2.8
  Number of female fetuses: 8.0 ± 2.2
  Number of implantation sites: 16.5 ± 2.3
  Number of males fetuses: 7.4 ± 2.3
  Number of resorptions: 1.1 ± 0.9
  Postimplantation loss = (resorptions/implantations): 0.068 ± 0.051
  Preimplantation loss = (corpora lutea-implants)/(corpora lutea): 0.053 ± 0.113
[1]; 12,000 mg/kg/day
  Females pregnant (%): 91.3%
  Fertility index: 91.3
  Litters with resorptions (%): 28.6%
  Number of dead fetuses: 0
  Number of females bearing viable fetuses: 21
  Number of females pregnant: 21
  Number of litters with resorptions: 6
  Total number of viable fetuses: 322
  Body weight (g) of viable fetuses: 3.75 ± 0.32 g
  Body weight (g) of viable fetuses: Female fetuses: 3.65 ± 0.35 g
  Body weight (g) of viable fetuses: Male fetuses: 3.84 ± 0.33 g
  Number of corpora lutea: 17.7 ± 2.9
  Number of female fetuses: 7.5 ± 2.2
  Number of implantation sites: 15.9 ± 2.9
  Number of males fetuses: 7.8 ± 2.3
  Number of resorptions: 0.5 ± 0.9
  Postimplantation loss = (resorptions/implantations): 0.043 ± 0.087
  Preimplantation loss = (corpora lutea-implants)/(corpora lutea): 0.094 ± 0.151
[1]; 20,000 mg/kg/day
  Females pregnant (%): 100%
  Fertility index: 100
  Litters with resorptions (%): 54.2%
  Number of dead fetuses: 0
  Number of females bearing viable fetuses: 24
  Number of females pregnant: 24
  Number of litters with resorptions: 13
  Total number of viable fetuses: 350
  Body weight (g) of viable fetuses: 3.57 ± 0.24 g
  Body weight (g) of viable fetuses: Female fetuses: 3.49 ± 0.19 g
  Body weight (g) of viable fetuses: Male fetuses: 3.68 ± 0.27 g
  Number of corpora lutea: 17.4 ± 2.8
  Number of female fetuses: 7.1 ± 2.3
  Number of implantation sites: 15.3 ± 2.9
  Number of males fetuses: 7.5 ± 2.3
  Number of resorptions: 0.8 ± 0.8
  Postimplantation loss = (resorptions/implantations): 0.047 ± 0.049
  Preimplantation loss = (corpora lutea-implants)/(corpora lutea): 0.107 ± 0.162
[1]; 4,000, 12,000 and 20,000 mg/kg body wt/day via gastric intubation, Days 6-15 of gestation, killed Day 20
  Adverse effects in the dams or fetuses: No adverse effects in the dams or fetuses were found
[1]; each tagatose group, total, males and females
  Fetal weight versus control rats: weighed more than the fetuses of the control rats
[1]; fetuses from rats on tagatose, normal range 3.35-3.86 g males, 3.19-3.63 g females
  Fetal weight relative to normal weight range for age: within the normal weight range for their ages
human; 70 kg human female, family history of low birth weight babies, five g twice daily
  Birth weight: delivers a baby within the normal birth weight range
human; 70 kg human inclined toward obesity, five g twice daily
  Food intake during pregnancy: their average daily diet does not increase
human; 70 kg human, history of difficulty conceiving, five g twice daily from one month before attempt
  Conception (increased fertility): their attempt is successful and they are pregnant
human; 70 kg human, history of spontaneous abortions and stillbirths, five g twice daily
  Live birth: delivering a live birth
Female Crl:CD(SD)BR Rats; [2]
  Food intake (g/animal): 144 ± 11 g/animal
  Food intake (g/kg body wt/day): 103 ± 7 g/kg body wt/day
Female Crl:CD(SD)BR Rats; [3]
  Food intake (g/animal): 70 ± 5 g/animal
  Food intake (g/kg body wt/day): 84 ± 4 g/kg body wt/day
Female Crl:CD(SD)BR Rats; [4]
  Food intake (g/animal): 78 ± 7 g/animal
  Food intake (g/kg body wt/day): 91 ± 5 g/kg body wt/day
Female Crl:CD(SD)BR Rats; [5]
  Food intake (g/animal): 112 ± 9 g/animal
  Food intake (g/kg body wt/day): 90 ± 5 g/kg body wt/day
Female Crl:CD(SD)BR Rats; [6]
  Food intake (g/animal): 129 ± 10 g/animal
  Food intake (g/kg body wt/day): 94 ± 3 g/kg body wt/day
Female Crl:CD(SD)BR Rats; [7]
  Food intake (g/animal): 148 ± 8 g/animal
  Food intake (g/kg body wt/day): 104 ± 8 g/kg body wt/day
Female Crl:CD(SD)BR Rats; [8]
  Food intake (g/animal): 58 ± 6 g/animal
  Food intake (g/kg body wt/day): 69 ± 7 g/kg body wt/day
Female Crl:CD(SD)BR Rats; [9]
  Food intake (g/animal): 73 ± 6 g/animal
  Food intake (g/kg body wt/day): 84 ± 5 g/kg body wt/day
Female Crl:CD(SD)BR Rats; [10]
  Food intake (g/animal): 105 ± 9 g/animal
  Food intake (g/kg body wt/day): 83 ± 5 g/kg body wt/day
Female Crl:CD(SD)BR Rats; [11]
  Food intake (g/animal): 137 ± 9 g/animal
  Food intake (g/kg body wt/day): 99 ± 5 g/kg body wt/day
Female Crl:CD(SD)BR Rats; [12]
  Food intake (g/animal): 149 ± 14 g/animal
  Food intake (g/kg body wt/day): 107 ± 9 g/kg body wt/day
Female Crl:CD(SD)BR Rats; [13]
  Food intake (g/animal): 43 ± 12 g/animal
  Food intake (g/kg body wt/day): 51 ± 14 g/kg body wt/day
Female Crl:CD(SD)BR Rats; [14]
  Food intake (g/animal): 67 ± 7 g/animal
  Food intake (g/kg body wt/day): 80 ± 7 g/kg body wt/day
Female Crl:CD(SD)BR Rats; [15]
  Food intake (g/animal): 94 ± 10 g/animal
  Food intake (g/kg body wt/day): 77 ± 6 g/kg body wt/day
Female Crl:CD(SD)BR Rats; [16]
  Food intake (g/animal): 138 ± 11 g/animal
  Food intake (g/kg body wt/day): 102 ± 6 g/kg body wt/day
Female Crl:CD(SD)BR Rats; except Day 6 to Day 9, attributed to laxation in the high dose groups
  Weight loss in the dams: no consistent weight loss in the dams
Female Crl:CD(SD)BR Rats; period on tagatose, Day 6 through Day 15
  Total daily food intake versus control group: less than the daily food intakes of rats in the control group
